Measured values reported in patent publication US20250009737A1, “COMPOUNDS AND METHODS FOR THE TARGETED DEGRADATION OF ANDROGEN RECEPTOR” (Arvinas Operations, Inc., priority 2023, published 2025).
pEC50, pIC50: −log10 of the molar value.

Tests used:
Assay type in all cases: in vitro ADME
[1] = Metabolite profiling / stability in human hepatocyte suspension
Experimental: (§1) Metabolite profiling was conducted in incubations of Compound A (2 and 10 μM) with HLM (up to 60 min), human hepatocyte suspension (up to 240 min) and human plasma (up to 360 min). In addition, Compound A (2 μM) was incubated with recombinant human CYP enzymes CYP1A2, CYP2A6, CYP2B6, CYP2C8, CYP2C9, CYP2C19, CYP2D6, CYP2E1, CYP3A4 and CYP3A5.
The DDI potential of Compound A as a victim via CYP mediated pathways was examined in HLM, human hepatocyte suspensions, and human recombinant CYP enzymes.

[2] = Metabolite profiling / stability in human plasma
Experimental: as §1

[3] = target: T1, MATE1 (Homo sapiens, UniProt Q96FL8); experiment: MATE1 uptake transporter inhibition in MDCKII or HEK293 cells
T1 construct: expressed in transfected cells; host or cells: MDCKII or HEK293
T1 sequence (Q96FL8 1-570): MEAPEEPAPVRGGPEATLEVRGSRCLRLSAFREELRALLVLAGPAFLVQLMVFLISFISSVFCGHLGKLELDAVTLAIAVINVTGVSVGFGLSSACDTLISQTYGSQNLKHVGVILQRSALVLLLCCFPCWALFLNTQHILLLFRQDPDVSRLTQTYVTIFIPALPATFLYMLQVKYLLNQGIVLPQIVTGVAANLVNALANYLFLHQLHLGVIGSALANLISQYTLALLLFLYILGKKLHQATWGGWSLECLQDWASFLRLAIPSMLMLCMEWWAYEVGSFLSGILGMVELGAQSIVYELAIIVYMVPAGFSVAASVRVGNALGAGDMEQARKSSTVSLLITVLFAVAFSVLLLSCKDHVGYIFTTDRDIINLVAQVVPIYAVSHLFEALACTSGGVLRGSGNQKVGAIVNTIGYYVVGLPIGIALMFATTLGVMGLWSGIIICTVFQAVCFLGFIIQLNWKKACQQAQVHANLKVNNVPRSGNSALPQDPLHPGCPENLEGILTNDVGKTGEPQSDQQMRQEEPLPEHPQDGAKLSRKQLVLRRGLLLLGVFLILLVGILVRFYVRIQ
Experimental: (§2) In addition, the inhibition potential against efflux transporters (P-glycoprotein (Pgp) and breast cancer resistance protein (BCRP)) and uptake transporters (MATE1, MATE2-K, OATP1B1, OATP1B3, OAT1, OAT3, and OCT2) was assessed using single transporter over-expressed cell monolayers (MDCK II or HEK293) or inside-out vesicles.
(§3) The potential of Compound A to inhibit Pgp or BCRP was tested for bidirectional transport of the probe substrates in Pgp or BCRP-expressed MDCKII and control monolayers at Compound A concentrations of 0.07-5 μM. Pgp and BCR inhibition were tested in inside-out membrane vesicles prepared from HEK293 overexpressing human Pgp and BCR at concentrations of 0.01-9 μM Compound A in the presence of 4 mM MgATP or MgAMP.

[4] = target: T2, Pgp (Homo sapiens, UniProt P08183); experiment: Pgp inhibition, bidirectional transport in Pgp-expressed MDCKII monolayers; set-up: expressed in transfected cells; host or cells: MDCKII
T2 sequence (P08183 whole entry): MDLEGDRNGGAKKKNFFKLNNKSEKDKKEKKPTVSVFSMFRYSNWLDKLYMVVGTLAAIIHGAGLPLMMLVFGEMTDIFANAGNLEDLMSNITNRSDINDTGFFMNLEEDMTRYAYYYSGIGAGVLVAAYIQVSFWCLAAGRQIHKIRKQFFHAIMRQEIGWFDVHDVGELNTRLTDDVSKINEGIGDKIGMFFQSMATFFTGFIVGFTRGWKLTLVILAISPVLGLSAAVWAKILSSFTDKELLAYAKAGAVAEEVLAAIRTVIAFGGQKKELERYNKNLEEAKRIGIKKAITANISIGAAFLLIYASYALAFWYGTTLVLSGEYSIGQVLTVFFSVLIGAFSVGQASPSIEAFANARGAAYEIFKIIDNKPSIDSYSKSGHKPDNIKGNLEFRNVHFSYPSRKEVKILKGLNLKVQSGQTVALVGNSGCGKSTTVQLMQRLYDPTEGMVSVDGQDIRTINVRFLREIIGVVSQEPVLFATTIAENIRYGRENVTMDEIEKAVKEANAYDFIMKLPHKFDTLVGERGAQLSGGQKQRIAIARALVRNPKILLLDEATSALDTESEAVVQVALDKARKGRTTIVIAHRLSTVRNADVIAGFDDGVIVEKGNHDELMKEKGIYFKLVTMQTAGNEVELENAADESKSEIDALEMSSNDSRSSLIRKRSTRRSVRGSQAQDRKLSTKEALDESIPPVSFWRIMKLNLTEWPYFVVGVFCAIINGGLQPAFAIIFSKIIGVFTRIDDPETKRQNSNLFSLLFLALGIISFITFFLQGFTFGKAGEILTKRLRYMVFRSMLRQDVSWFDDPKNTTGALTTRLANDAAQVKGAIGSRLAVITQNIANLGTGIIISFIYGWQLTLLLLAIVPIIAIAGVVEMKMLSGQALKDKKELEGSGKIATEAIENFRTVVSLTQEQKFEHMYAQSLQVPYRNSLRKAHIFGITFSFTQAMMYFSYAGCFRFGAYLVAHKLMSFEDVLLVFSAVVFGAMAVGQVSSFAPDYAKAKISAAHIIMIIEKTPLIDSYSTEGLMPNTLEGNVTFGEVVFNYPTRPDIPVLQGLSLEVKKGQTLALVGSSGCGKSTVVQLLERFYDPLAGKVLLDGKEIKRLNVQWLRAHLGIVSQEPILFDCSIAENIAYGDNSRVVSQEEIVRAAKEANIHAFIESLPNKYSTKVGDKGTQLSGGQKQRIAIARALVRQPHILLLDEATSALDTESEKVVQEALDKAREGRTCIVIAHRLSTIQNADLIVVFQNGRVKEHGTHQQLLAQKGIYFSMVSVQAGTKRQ
Experimental: as §2, §3

[5] = target: T3, BCRP (Homo sapiens, UniProt Q9UNQ0); experiment: BCRP inhibition, bidirectional transport in BCRP-expressed MDCKII monolayers; set-up: expressed in transfected cells; host or cells: MDCKII
T3 sequence (Q9UNQ0 1-655): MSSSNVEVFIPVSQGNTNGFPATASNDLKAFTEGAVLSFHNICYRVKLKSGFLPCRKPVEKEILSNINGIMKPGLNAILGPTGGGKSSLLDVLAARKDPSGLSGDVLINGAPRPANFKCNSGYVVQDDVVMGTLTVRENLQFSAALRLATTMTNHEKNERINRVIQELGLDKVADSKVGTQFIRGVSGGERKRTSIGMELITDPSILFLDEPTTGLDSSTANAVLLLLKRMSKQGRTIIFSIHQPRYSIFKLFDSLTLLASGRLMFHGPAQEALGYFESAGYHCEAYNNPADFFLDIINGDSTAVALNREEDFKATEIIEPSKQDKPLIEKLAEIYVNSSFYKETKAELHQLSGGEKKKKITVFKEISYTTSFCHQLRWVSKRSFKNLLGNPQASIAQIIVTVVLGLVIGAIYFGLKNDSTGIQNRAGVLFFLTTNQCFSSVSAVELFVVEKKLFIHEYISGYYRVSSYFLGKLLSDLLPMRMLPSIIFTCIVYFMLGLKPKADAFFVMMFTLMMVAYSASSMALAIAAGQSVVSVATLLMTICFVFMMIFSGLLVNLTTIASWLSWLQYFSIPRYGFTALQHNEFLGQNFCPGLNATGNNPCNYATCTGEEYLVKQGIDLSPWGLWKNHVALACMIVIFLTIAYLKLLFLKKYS
Experimental: as §2, §3

[6] = target: T2, Pgp; experiment: Pgp inhibition in inside-out membrane vesicles from HEK293; set-up: expressed in transfected cells; host or cells: HEK293 (inside-out membrane vesicles)
Experimental: as §2, §3

[7] = target: T3, BCRP; experiment: BCRP inhibition in inside-out membrane vesicles from HEK293; set-up: expressed in transfected cells; host or cells: HEK293 (inside-out membrane vesicles); conditions: substrate Rosuvastatin (1 μM)
Experimental: as §2, §3

## COc1cc(O[C@H]2C(C)(C)[C@H](NC(=O)c3ccc(N4CCC(CN5CCN(c6ccc(C(=O)N[C@H]7CCC(=O)NC7=O)c(F)c6)CC5)CC4)cc3)C2(C)C)ccc1C#N [Compound A, 4-(4-((1-(4-(((1R,3R)-3-(4-cyano-3-methoxyphenoxy)-2,2,4,4-tetramethylcyclobutyl)carbamoyl)phenyl)piperidin-4-yl)methyl)piperazin-1-yl)-N—((S)-2,6-dioxopiperidin-3-yl)-2-fluorobenzamide]
[1]; human hepatocyte suspensions, 240 min
  % Parent at 0 Min, HH at 240 min: 86.9%
[1]; up to 240 min
  Stability in human hepatocyte suspension: relatively stable
[2]
  % Parent at 0 Min, HP at 360 min: 77.0%
[3]; MATE1, substrate Metformin (10 μM)
  pIC50: 5.52
[3]; MATE1 inhibition
  pEC50: 5.52
[3]; MDCKII or HEK293 cells stably expressing MATE1, probe Metformin (10 μM), at a concentration of 3.75 μM
  inhibition at 3.75 µM: 52%
[4]; MDCKII bidirectional assays
  Pgp inhibition in the MDCKII bidirectional assays: not observed
[4]; Pgp-expressed MDCKII cell monolayers, probe Digoxin (5 μM), Pgp, Monolayers, substrate Digoxin (5 μM), read-out: Maximal % Inhibition
  inhibition at 5 µM: < 20%
[4]; Pgp, Monolayers, substrate Digoxin (5 μM)
  pIC50: < 5.30
[5]; BCRP-expressed MDCKII cell monolayers, probe Prazosin (1 μM), Monolayers, substrate Prazosin (1 μM), read-out: Maximal % Inhibition
  inhibition at 1 µM: 54%
[5]; monolayer assays
  pIC50: 5.81
[6]; human, probe NMQ (1 μM), Vesicles, substrate NMQ (1 μM), read-out: Maximal % Inhibition
  inhibition at 1 µM: 87%
[6]; vesicle assays
  pIC50: 6.64
[7]; human, probe Rosuvastatin (1 μM), read-out: Maximal % Inhibition
  inhibition at 1 µM: 95%
[7]
  pIC50: 6.68
